# Values of other authors as cited in patent US20220288091A1, “Method for Improving Insulin Sensitivity” (priority 2019, published 2022).
# Columns and labels:
# Conditions in all cases: Miner et al.; cited from earlier work
# receptors for estrogens = system: receptors for estrogens
# GR = target: T1, GR (Homo sapiens, UniProt P04150)
# T1 sequence (P04150 1-777): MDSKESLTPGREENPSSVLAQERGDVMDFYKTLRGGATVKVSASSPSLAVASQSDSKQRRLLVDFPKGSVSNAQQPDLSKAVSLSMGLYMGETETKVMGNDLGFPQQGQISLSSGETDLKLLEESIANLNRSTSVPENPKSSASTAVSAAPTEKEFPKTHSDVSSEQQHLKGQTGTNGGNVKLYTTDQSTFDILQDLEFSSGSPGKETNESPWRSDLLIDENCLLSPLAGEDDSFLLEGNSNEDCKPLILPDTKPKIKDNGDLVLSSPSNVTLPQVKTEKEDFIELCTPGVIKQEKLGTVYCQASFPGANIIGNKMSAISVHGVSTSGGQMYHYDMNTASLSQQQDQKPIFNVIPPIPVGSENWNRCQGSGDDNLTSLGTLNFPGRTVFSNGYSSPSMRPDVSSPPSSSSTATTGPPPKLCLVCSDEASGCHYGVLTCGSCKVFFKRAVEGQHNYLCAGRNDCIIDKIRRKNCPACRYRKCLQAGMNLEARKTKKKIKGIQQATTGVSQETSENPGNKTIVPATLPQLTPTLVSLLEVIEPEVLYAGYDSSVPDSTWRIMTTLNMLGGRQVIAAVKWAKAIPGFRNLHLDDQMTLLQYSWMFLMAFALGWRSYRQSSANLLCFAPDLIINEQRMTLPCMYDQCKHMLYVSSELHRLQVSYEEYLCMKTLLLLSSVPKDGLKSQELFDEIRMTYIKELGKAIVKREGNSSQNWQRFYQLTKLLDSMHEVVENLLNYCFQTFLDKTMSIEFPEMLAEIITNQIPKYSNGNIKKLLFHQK
# receptors for progestins = target: T2, receptors for progestins (Homo sapiens, UniProt P06401)
# T2 sequence (P06401 1-933): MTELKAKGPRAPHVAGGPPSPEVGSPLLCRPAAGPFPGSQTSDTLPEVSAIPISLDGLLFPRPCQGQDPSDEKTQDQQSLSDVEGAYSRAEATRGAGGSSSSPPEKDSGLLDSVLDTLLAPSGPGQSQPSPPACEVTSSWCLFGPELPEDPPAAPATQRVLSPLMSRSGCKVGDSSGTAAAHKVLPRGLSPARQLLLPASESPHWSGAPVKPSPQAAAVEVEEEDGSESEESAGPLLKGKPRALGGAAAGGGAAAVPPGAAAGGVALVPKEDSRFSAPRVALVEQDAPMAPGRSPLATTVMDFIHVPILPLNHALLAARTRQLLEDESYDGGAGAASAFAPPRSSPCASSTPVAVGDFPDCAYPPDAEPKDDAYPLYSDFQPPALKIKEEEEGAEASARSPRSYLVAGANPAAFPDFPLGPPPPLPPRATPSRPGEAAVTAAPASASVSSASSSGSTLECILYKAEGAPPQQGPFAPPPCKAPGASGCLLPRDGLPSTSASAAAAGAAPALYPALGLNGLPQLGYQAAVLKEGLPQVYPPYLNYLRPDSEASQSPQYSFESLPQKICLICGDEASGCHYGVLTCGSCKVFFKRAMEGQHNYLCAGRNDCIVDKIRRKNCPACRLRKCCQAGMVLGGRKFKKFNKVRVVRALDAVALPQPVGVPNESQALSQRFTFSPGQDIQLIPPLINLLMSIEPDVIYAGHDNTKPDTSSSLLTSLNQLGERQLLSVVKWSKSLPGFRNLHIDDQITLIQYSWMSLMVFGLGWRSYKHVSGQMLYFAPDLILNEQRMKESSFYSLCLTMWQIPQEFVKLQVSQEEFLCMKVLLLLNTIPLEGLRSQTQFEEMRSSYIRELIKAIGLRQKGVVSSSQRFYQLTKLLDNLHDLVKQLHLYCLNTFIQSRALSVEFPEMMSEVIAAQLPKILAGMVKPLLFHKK
# receptors for androgens = target: T3, receptors for androgens (Homo sapiens, UniProt P10275)
# T3 sequence (P10275 1-920): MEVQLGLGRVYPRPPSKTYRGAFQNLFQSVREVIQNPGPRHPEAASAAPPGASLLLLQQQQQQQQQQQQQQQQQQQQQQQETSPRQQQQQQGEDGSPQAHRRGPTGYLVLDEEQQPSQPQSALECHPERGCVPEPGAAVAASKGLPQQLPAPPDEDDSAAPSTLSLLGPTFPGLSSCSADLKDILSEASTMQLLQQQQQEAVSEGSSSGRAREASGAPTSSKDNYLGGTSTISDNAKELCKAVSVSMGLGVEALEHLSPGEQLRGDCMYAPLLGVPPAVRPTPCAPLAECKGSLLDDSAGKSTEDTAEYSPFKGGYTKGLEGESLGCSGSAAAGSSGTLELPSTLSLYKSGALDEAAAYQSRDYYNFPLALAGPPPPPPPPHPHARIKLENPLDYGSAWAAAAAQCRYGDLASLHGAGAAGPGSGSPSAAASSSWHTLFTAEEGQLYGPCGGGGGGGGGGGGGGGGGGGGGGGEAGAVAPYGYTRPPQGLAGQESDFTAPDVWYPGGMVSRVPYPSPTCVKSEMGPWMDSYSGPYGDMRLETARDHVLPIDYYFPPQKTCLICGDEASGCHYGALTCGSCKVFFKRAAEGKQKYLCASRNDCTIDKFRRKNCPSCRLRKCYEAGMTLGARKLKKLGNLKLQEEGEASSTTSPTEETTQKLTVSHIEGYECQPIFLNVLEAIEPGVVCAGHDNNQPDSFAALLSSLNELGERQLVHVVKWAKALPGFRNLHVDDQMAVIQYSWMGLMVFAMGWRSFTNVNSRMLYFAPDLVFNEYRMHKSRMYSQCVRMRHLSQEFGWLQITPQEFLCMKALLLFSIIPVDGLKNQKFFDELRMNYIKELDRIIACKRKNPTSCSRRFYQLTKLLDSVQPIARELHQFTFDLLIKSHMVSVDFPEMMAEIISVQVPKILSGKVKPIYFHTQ
# [1] = target: T4, receptors for mineralocorticoids (Homo sapiens, UniProt P08235)
# T4 sequence (P08235 1-984): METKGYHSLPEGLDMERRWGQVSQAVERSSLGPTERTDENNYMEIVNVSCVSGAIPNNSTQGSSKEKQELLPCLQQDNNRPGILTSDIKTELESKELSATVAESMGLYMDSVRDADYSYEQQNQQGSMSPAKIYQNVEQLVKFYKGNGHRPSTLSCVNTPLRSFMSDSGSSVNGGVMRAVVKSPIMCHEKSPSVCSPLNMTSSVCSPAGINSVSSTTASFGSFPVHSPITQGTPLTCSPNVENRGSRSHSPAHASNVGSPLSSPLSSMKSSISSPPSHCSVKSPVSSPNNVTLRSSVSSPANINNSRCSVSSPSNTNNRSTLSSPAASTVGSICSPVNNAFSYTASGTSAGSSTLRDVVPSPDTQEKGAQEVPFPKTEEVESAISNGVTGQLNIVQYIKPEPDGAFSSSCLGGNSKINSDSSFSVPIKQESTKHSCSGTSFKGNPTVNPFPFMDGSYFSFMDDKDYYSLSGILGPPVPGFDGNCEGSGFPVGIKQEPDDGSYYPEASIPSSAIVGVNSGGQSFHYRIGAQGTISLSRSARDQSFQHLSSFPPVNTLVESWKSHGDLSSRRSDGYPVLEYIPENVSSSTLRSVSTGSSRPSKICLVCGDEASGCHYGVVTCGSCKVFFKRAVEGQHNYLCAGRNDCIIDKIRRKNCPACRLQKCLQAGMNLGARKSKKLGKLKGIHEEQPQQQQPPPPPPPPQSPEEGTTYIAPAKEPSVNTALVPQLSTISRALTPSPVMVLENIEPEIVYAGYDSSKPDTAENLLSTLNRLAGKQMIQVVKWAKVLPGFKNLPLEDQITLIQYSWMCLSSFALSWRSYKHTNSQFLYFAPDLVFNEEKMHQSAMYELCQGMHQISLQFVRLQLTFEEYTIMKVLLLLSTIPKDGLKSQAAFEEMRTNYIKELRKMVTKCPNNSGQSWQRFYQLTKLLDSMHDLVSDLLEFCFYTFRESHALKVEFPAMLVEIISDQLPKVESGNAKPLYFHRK
smiles,measurement,setting,value
"CN(C)c1ccc(C(c2ccc(N(C)C)cc2)c2cc([N+](=O)[O-])ccc2Cl)cc1 [[bis(4-N,N-dimethylaminophenyl)(2-chloro-5-nitrophenyl)methane]]",Affinity for estrogen receptor,receptors for estrogens,no detectable affinity
same,Affinity for the GR,GR,nanomolar affinity
same,Affinity for progestin receptor,receptors for progestins,no detectable affinity
same,Affinity for androgen receptor,receptors for androgens,no detectable affinity
same,Affinity for mineralocorticoid receptor,[1],no detectable affinity
